Holding throughout (format): cell-based, murine (C57BL/6 mice)
One data set relates to Nrf2. Briefly: Western blotting of Nrf2 nuclear translocation in macrophages. Particulars: 40 μM; 15, 30, 60, 90 and 120 min. The method, then:
Figure 7 The effects of penstyrylpyrone (1) on the nuclear translocation of Nrf2 (A) and anti-oxidant response element (ARE) activation (B) in murine peritoneal macrophages. Murine peritoneal macrophages were treated with 40 μM of penstyrylpyrone (1) for 15, 30, 60, 90 and 120 min. The nuclei were fractionated from the cytosol using PER-Mammalian Protein Extraction buffer. Nrf2 protein was detected using Western blotting analysis and representative blots of three independent experiments are shown. Quiescent cells transiently transfected with ARE-luciferase or control vector were incubated for 1 h with indicated concentrations of latifolin in the presence of 5% FBS. […]
(§1) Murine peritoneal macrophages were homogenized (1:20, w:v) in PER-Mammalian Protein Extraction buffer (Pierce Biotechnology, Rockford, IL, USA) containing freshly added protease inhibitor cocktail I (EMD Biosciences, San Diego, CA, USA) and 1 mM phenylmethylsulfonyl fluoride (PMSF). […] The protein concentration was determined using the bicinchoninic acid (BCA) protein assay kit.
Western blotting analysis was performed by lysing the cells in 20 mM Tris-HCl buffer (pH 7.4) containing a protease inhibitor mixture (0.1 mM PMSF, 5 mg/mL aprotinin, 5 mg/mL pepstatin A, and 1 mg/mL chymostatin). The protein concentration was determined using a Lowry protein assay kit (P5626; Sigma Chemical Co., St. Louis, MO, USA). […]

The test system of another data set is NF-κB. The data set is described as follows: DNA-binding activity of NF-κB in nuclear extracts (TransAM kit). Particulars: pre-treatment 12 h, LPS 1 μg/mL 1 h. The protocol:
Figure 5 The effects of penstyrylpyrone (1) on the protein expression level of IκB-α phosphorylation, degradation of IκB-α (A), NF-κB translocation (B), and NF-κB DNA binding activity (C) in murine peritoneal macrophages. Murine peritoneal macrophages were pre-treated for 12 h at the indicated concentrations of penstyrylpyrone (1), and stimulated for 1 h with LPS (1 μg/mL). Western blotting analysis of IκB-α and p-IκB-α in the cytoplasm and NF-κB in the nucleus (A, B) were performed. A commercially available NF-κB ELISA (Active Motif) was used to test the nuclear extracts and to determine the degree of NF-κB binding (C). The data represent the mean values ± SD of three experiments. *p < 0.05 compared with the group treated with LPS.
C57BL/6 mice were purchased from Orient Bio Co. (Sungnam, Kyung-Kido, Korea). […]
as §1
(§2) The DNA-binding activity of NF-κB in the nuclear extracts was measured using the TransAM kit (Active Motif, Carlsbad, CA, USA) according to the manufacturer’s instructions.

Another data set relates to HO-1. The data set is described as follows: Effect of the HO-1 inhibitor SnPP on the inhibition of pro-inflammatory mediators in LPS-stimulated macrophages. Particulars: 40 μM pre-treatment 12 h, SnPP 50 μM, LPS 1 μg/mL 18 h. The method, then:
Figure 8 The effects of SnPP on the inhibition of nitrite production (A), PGE2 production (B), NF-κB DNA-binding activity (C), TNF-α production (D), and IL-1β production (E) by penstyrylpyrone (1) pre-treatment of LPS-stimulated murine peritoneal macrophages. Murine peritoneal macrophages were pre-treated for 12 h with penstyrylpyrone (1) (40μM), in the presence or absence of SnPP (50 μM) and stimulated for 18 h with LPS (1μg/mL). The nitrite (A), PGE2 (B), TNF-α (D), and IL-1β (E) concentrations and nuclear NF-κB DNA-binding activity (C) were investigated as described in Materials and Methods. […]
The production of nitrite, a stable end product of NO oxidation, was used as a measure of iNOS activity. The nitrite present in the conditioned medium was determined using a method based on the Griess reaction.
The level of PGE2, TNF-α or IL-1β present in each sample was determined using a commercially available kit from R & D Systems. […] A substrate solution was added, and the intensity of the color produced, which was measured at 450 nm (the correction wavelength was set at 540 nm or 570 nm), was proportional to the amount of PGE2, TNF-α or IL-1β present.
as §2

Data set [1] relates to murine peritoneal macrophages. The data set is described as follows: Cell viability assay (MTT). The arrangement: dose or concentration left out as unconfirmed.

With `COc1cc(/C=C/c2ccccc2)oc(=O)c1C` [Penstyrylpyrone (1), penstyrylpyrone], the “Nrf2 levels in nuclear fractions” value in the data set with Nrf2 is “gradual increase in Nrf2 levels”. For the same compound, the “NF-κB DNA-binding activity” value with NF-κB is recorded as “impaired this activity in a concentration-dependent manner”. Further, in the data set on HO-1, the “Suppressive effects on LPS-stimulated NO, PGE2, TNF-α, IL-1β production and NF-κB DNA-binding activity in presence of SnPP” value is listed as “partially reversed by SnPP”. Besides, the “Cytotoxicity (cell viability)” value in data set [1] is “non-cytotoxic”.

The values are drawn from PMC3705412, “PTP1B Inhibitory and Anti-Inflammatory Effects of Secondary Metabolites Isolated from the Marine-Derived Fungus Penicillium sp. JF-55” (Marine Drugs, 2013).
